Reference: patent publication US20240150396A1 (The Texas A&M University System, priority 2021, published 2024)
Several values for one entry are separate records, joined by “and”; a condition that tells them apart may be missing. Identical values can stand only once. Like-named read-outs stand apart in the source and are kept apart here. Residues, ends and D or L forms follow the SMILES beside them. *: point of attachment. Cbz = O=C(OCc1ccccc1)*

Key:
[1] = Host cell cytotoxicity in the T. cruzi infection model; type: cell-based, mouse; conditions: mouse; host cardiomyoblasts; read-out: C2C12 Cytotoxicity CC50
Protocol: (§1) The plates were incubated at 37° C. for 48 h, and the wells were fixed with 2% paraformaldehyde in PBS and stained with 5 μg mL-1 4,6-diamidino-2-phenylindole. After at least 30 min of incubation at room temperature in the dark, the plates were read in an automated microscope, ImageXpress Micro XL (Molecular Devices), and the images were analyzed by custom-built software to quantify and assess viability of the parasites, as well as the host cells independently. The compilation of data was used to calculate the antiparasitic activity (EC50) and host cytotoxicity (CC50).
T. cruzi infection was evaluated in C2C12 murine cardiomyoblast cells. […] The wells were fixed with 2% PFA in PBS, and stained by 5 μg/ml of DAPI. After >30 min of incubation in a dark environment, the plates were read on an ImageXpress MicroXL microscope (Molecular Devices). The images were analyzed to quantify parasites as well host cells.

cruzain = cruzain (Trypanosoma cruzi, UniProt P25779); test: biochemical; conditions: for Ki: pH 7.5
Chain of cruzain (P25779 123-467 limits assumed): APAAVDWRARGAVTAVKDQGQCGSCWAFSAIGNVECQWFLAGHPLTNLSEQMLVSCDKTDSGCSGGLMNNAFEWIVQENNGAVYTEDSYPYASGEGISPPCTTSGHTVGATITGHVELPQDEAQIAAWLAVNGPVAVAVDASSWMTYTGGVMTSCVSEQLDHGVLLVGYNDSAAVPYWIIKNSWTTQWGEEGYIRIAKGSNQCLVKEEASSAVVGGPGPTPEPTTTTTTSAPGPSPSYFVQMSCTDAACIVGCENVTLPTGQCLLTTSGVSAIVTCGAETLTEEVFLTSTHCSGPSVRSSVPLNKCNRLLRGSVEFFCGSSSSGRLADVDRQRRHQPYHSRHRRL
Protocol: All enzyme assays were performed at 25° C. Initial rates of the peptidolytic reaction catalyzed by cruzain were measured by monitoring the fluorescence generated by cleavage of the dipeptide-AMC bond. Assays were conducted in 96-well plates (Greiner; flat-bottom, clear black plates) in a total volume of 250 μL, containing either 50 mM MES (pH 7.5), 50 mM TAPSO, 100 mM DEA, 1 mM CHAPS, 1 mM Na2EDTA, 5 mM DTT, and 10% DMSO (v/v) or 50 mM sodium acetate (pH 5.5), 50 mM MES, 100 mM TEA, 1 mM CHAPS, 1 mM Na2EDTA, 5 mM DTT, and 10% DMSO (v/v). Substrates were dissolved in 100% DMSO and were then diluted 10-fold such that when added to reaction mixtures, final DMSO concentration was 10% (v/v). […] Fluorescence was measured on either a SpectraMax M5 (Molecular Devices) or a Synergy HTX (BioTek, Winooski, VT) microplate reader (λex=360 nm, λem=460 nm). Initial rates were determined from continuous kinetic time courses and calculated from the earliest time points, typically at less than 10 min.
(2) Enzyme and compound were preincubated over extended periods of time, and then aliquots were removed and diluted 50-fold to 100-fold into reaction mixtures containing 10 μM Cbz-Phe-Arg-AMC, followed by the assessment of the resulting time courses.
Data for time-dependent inhibition were fitted by several methods.
Values of kobs versus [inhibitor] were then replotted and fitted to eq 4 for which k3 and k4 represent the respective rates of formation and dissolution of the EI* complex as depicted in FIG. 9.
In addition, time-course data were fitted globally by two methods. First, expressions for vs, vi, and kobs were substituted into eq 3 to generate eq 6, which was used to fit time-course data at all concentrations of inhibitors simultaneously. Second, time-course data were fitted using KinTek Explorer as either a single-binding step model with the two kinetic parameters k3/Ki and k4 or a two-step binding mechanism as shown in FIG. 9 from which rate constants k1-k4 are determined (Supporting Information).
Enzyme Assays. The preparation of cruzain and 3CL^pro were described in previous publications.^8, 34 The evaluation of inhibitors was modified from our lab protocol and described briefly as follows.^35 All enzyme assays were conducted in 96-well, clear bottom, black plates at 25° C., and fluorescence emanating from product formation was measured using either a SpectraMax M5 (Molecular Devices) or a Synergy HTX (Biotek) microplate reader, with excitation at λex=360 nm and emission at λem=460 nm. […] Reactions were started with addition of enzyme (typically, to a final concentration of 0.2 nM for cruzain or 40 nM for 3CL^pro), and the time courses were recorded for 0.5-1 h.
Kinetic Data Analysis. All time-course data were fitted to eq. 1, wherein P is the fluorescence generated by formation of AMC or liberated ACC, C is the background constant, vi and vs are respectively initial-state and steady-state reaction rates, t is time, and kobs is the observed rate of conversion of the initial inhibited rate to the final inhibited rate.^46
Overall inhibition constants (Ki* values) were obtained by fitting vs/v0 to eq. 4, wherein vs and v0 are steady-state reaction rates in the presence and absence of inhibitor respectively, [S] and [I] represent the fixed concentration of substrate and variable inhibitor, Km is the Michaelis constant of the substrate.

[2] = tested on: T. cruzi (Ca-I/72) in C2C12 murine cardiomyoblasts; test: T. cruzi-infected murine cardiomyoblasts (C2C12); type: cell-based, Trypanosoma cruzi; conditions: read-out: EC50 T. cruzi-infected cardiomyoblasts
Protocol: as §1, with “For the evaluation of the antitrypanocidal activity of cruzain inhibitors, we infected a C2C12 mouse cardiomyoblast cell line (ATCC CRL-1772) with T. cruzi strain Ca-I/72 (a gift from James Dvorak, National Institutes of Health) in […] plates. […] The plates” for “The plates”
T. cruzi infection was evaluated in C2C12 murine cardiomyoblast cells. 384-microwell plates containing C2C12 murine cardiomyoblast cells were infected with 10^3 and 10^4 cells of T. cruzi (Ca-I/72), to which was added 3-fold serially-dilutions of inhibitor with maximal concentrations of 10 μM, followed by incubation at 37° C. for 2 days. The wells were fixed with 2% PFA in PBS, and stained by 5 μg/ml of DAPI. After >30 min of incubation in a dark environment, the plates were read on an ImageXpress MicroXL microscope (Molecular Devices). The images were analyzed to quantify parasites as well host cells.

human cathepsin L = human cathepsin L (Homo sapiens (Human), UniProt P07711); test: Human cathepsin L inhibition, Z-FR-AMC assay; type: biochemical; conditions: pH 5.5, 25° C.; read-out: Ki* hCatL
Chain of human cathepsin L (P07711 114-333): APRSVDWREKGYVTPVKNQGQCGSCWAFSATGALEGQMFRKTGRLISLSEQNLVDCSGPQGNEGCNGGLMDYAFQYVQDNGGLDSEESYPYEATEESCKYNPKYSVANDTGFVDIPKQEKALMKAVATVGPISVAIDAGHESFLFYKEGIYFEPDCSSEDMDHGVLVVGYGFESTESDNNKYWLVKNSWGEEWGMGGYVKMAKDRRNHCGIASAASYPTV
Protocol: Recombinant human cathepsins B and L were purchased from Millipore Sigma and used without further treatment. The solid proteins were dissolved into a solution of 50 mM sodium acetate (pH 5.5), 1 mM EDTA, 1 mM CHAPS, 10% (v/v) DMSO, and 5 mM DTT to final concentrations of […] in 20-mL aliquots, and stored at −80° C. until needed. These samples were then diluted into the same buffer to concentrations of −100 nM, and these dilutions were stored at 4° C. and used daily until depletion.
For assays of cathepsin L and B, inhibitors were evaluated in 0.25-mL reaction mixtures containing a buffer of sodium acetate (pH 5.5), 1 mM CHAPS, 1 mM Na2EDTA, and 5 mM DTT at 25° C. The fluorogenic substrate Cbz-Phe-Arg-7-amino-4-methyl-coumarin (Z-FR-AMC) was dissolved in 100% DMSO, as were all inhibitors, and aliquots of both substrates and inhibitors were added to reaction mixtures to final concentrations of DMSO of 10% (v/v). […] Formation of the fluorescent product AMC was monitored over 30-60-minute time courses for reaction mixtures in 96-well black microplates (Corning Costar®). Rates of peptidolysis of the dipeptide-AMC substrate(s) were measured on either a SpectraMax M5 (Molecular Devices) or a Synergy HTX (Biotek, Wisnooki, VT) microplate reader with λex=360 nm, λem=460 nm in ≥8-sec intervals. Control samples excluded substrate. The measured relative fluorescence units (RFUs) of generated AMC were converted to reaction rates of μM/s by use of a standard curve of known AMC concentrations obtained for both plate readers.

[3] = tested on: T. b. brucei bloodstream forms; test: Growth of axenic cultures of T. b. brucei bloodstream forms (BSFs)
Protocol: Selected cruzain inhibitors were evaluated in axenic cell cultures of T. b. brucei and T. cruzi. Procyclic trypomastigotes of T. b. brucei (ATCC PRA-381) were grown in the SDM-79 medium at 26° C., and bloodstream forms (ATCC PRA-383) were grown at 37° C. in the HMI-9 medium at 5% C02. […] Both forms of T. b. brucei and T. cruzi were grown in media containing 10% fetal bovine serum (FBS) and penicillin/streptomycin (50 U mL^−1). […] Control samples contained equal amounts of DMSO. T. b. brucei and T. cruzi (5 mL in flask cultures) were seeded at ˜3×10^6 cells and diluted daily, maintaining a mid-log growth phase for up to 120 h. […] After each cell dilution, fresh compound or an equal volume of DMSO (control samples) was supplemented into the cultures, while maintaining a constant concentration of each inhibitor. Cell counts were scored using a Z2 Coulter Counter.
In vitro Cell Assays. Bloodstream form T. b. brucei strain SM427 was grown in HM1-9 medium that included fetal bovine serum (10%) and antibiotics (100 U/mL penicillin-streptomycin, Gibco™). Inhibitors dissolved in 100% (v/v) DMSO stock solutions were added at final concentrations of 0.5-20 μM (final concentrations of DMSO were <1% (v/v)). T. b. brucei were seeded at ˜1×10^6 cells at 37° C., and diluted daily to maintain a log phase of growth for up to 96 h. […] After each dilution, the cell cultures were supplemented with inhibitor or DMSO (control) to keep concentrations constant. Cell density was determined and graphed as previously reported.^36 Trypanosomes were quantified using a Z2 Coulter Counter, and values of EC50 were determined after 3-4 days of treatment by the interpolation method of Huber and Koella.^37

[4] = tested on: SARS-CoV-2 in Vero E6 cells; test: Anti-CoV-2 activity in Vero E6 cells; type: cell-based
SARS-CoV-2 3CL protease = SARS-CoV-2 3CL protease (Severe acute respiratory syndrome coronavirus 2 (2019-nCoV) (SARS-CoV-2), UniProt P0DTD1); test: biochemical; type: biochemical; conditions: pH 7.5
[5] = tested on: T. b. brucei procyclic forms; test: Growth of axenic cultures of T. b. brucei procyclic forms (PCFs); type: cell-based, Trypanosoma brucei brucei; conditions: for EC50: axenic culture, read-out: EC50 T. b. brucei PCF
[6] = tested on: T. cruzi epimastigotes (strain Y); test: Growth of axenic cultures of T. cruzi epimastigotes; conditions: for EC50: Trypanosoma cruzi, read-out: T. cruzi axenic culture EC50, epimastigotes; for T. cruzi axenic culture EC50: epimastigotes
Protocol: Selected cruzain inhibitors in axenic cell cultures of Trypanosoma brucei brucei (procyclic trypomastigotes; ATCC PRA-381) and Trypanosoma cruzi (epimastigote forms; strain Y, ATCC 50832GFP) were tested. T. b. brucei is grown in SDM-79 medium, and T. cruzi is grown in ATCC medium (1029 LIT medium). Both media included fetal calf serum (10%) and penicillin/streptomycin (50 U/mL). […] T. brucei and T. cruzi (5 mL in flask cultures) at 26° C. were seeded at ˜3×10^6 cells, and diluted daily maintaining a mid-log growth phase for up to 100 hrs. Cell counts were scored using a Z2 Coulter Counter. After each cell dilution, fresh compound or an equal volume of DMSO (control samples), was supplemented into the cultures. […] Cruzain inhibitors where the highest concentration reflects the upper limit of solubilities of the inhibitors in 1% (v/v) DMSO solutions were evaluated. These inhibitors are likely to bind to proteins in fetal calf serum, and for these reasons, fresh inhibitors were added each time cells were re-fed.
Selected cruzain inhibitors were evaluated in axenic cell cultures of T. b. brucei and T. cruzi. Procyclic trypomastigotes of T. b. brucei (ATCC PRA-381) were grown in the SDM-79 medium at 26° C., and bloodstream forms (ATCC PRA-383) were grown at 37° C. in the HMI-9 medium at 5% C02. T. cruzi (epimastigote forms, strain Y, ATCC 50832GFP) was grown in the ATCC medium (1029 LIT medium). Both forms of T. b. brucei and T. cruzi were grown in media containing 10% fetal bovine serum (FBS) and penicillin/streptomycin (50 U mL^−1). […] Control samples contained equal amounts of DMSO. T. b. brucei and T. cruzi (5 mL in flask cultures) were seeded at ˜3×10^6 cells and diluted daily, maintaining a mid-log growth phase for up to 120 h. […] After each cell dilution, fresh compound or an equal volume of DMSO (control samples) was supplemented into the cultures, while maintaining a constant concentration of each inhibitor. Cell counts were scored using a Z2 Coulter Counter.

human dermal fibroblasts = test: Human cell toxicity, resazurin viability; type: cell-based; conditions: human dermal fibroblasts; read-out: Human Cell Cytotoxicity CC50
Protocol: Primary human dermal fibroblast (HDF) cells were used to evaluate human cell toxicity of cruzain inhibitors. HDF cells were plated in a 384-well plate at 2400 cells per well (62,000 cells mL^−1). Inhibitors in 100% DMSO were added in duplicate to final concentrations of 0.001-0.1 mM and 1% DMSO (v/v) with 1% DMSO as a control sample, and cells were cultured at 37° C. for 48 h, followed by the addition of resazurin. Cell viability was then assessed by reading of fluorescence (excitation/emission: 544 nm/590 nm) after an additional 24 h of incubation.

[7] = Thiolation of inhibitors with glutathione, LCMS; type: physicochemical; conditions: 5 mM glutathione, 0.5 mM compound, Tris pH 8.0, 10% DMSO
Protocol: Samples were analyzed by HPLC-MS (as described above) by injecting 0.01 mL aliquots onto a Luna […] C18(2) 100 Å, 4.6 mm, 50 mm column (Phenomenex) using the HPLC method described in the chemistry section at 0-6 h time points. […] Integration of the chromatographic peaks of the inhibitors and their GSH adducts at each time point was used to determine the rate of GSH adduct formation.

[8] = apparent initial inhibition constant, 25° C., read-out: Ki
[9] = apparent tight-binding inhibition constant, 25° C., read-out: Ki*
[10] = Trypanosoma cruzi, C2C12, C2C12 murine cardiomyoblasts

SMILES: C[C@@H](/C=C/c1ncccn1)NC(=O)[C@H](Cc1ccccc1)NC(=O)OCc1ccccc1 [Compound 10, Benzyl ((S)-1-Oxo-3-phenyl-1-(((S,E)-4-(pyrimidin-2-yl)but-3-en-2-yl)amino)propan-2-yl)carbamate]
- CC50 at 48 h [1]: > 10 µM
- Ki (cruzain; [8]): 58000 nM
- Ki (cruzain; apparent tight-binding inhibition constant, 25° C.): 280 nM
- Ki (cruzain; [9]): 25000 ± 1000 nM
- EC50 [2, 10]: 5000 to 8000 nM

SMILES: O=C[C@H](Cc1ccccc1)NC(=O)[C@H](Cc1ccccc1)NC(=O)OCc1ccccc1 [Compound 28] (Cbz-Phe-Phe-aldehyde)
- Ki (human cathepsin L): 0.31 nM
- EC50 ([3]; read-out: EC50 T. b. brucei BSF, axenic culture): 3 µM and 3.3 µM
- EC50 [4]: 500 nM
- k4 (cruzain; conversion of EI* back to EI, from kobs replot or recovery after preincubation and dilution): (7.6±0.6)×10^−4 s^−1
- Ki (cruzain; obtained >10 minutes following initiation of reaction by addition of enzyme, read-out: Ki* Cruzain): 0.44 nM
- residence time τ (cruzain; preincubation, dilution, recovery of cruzain activity): 52 min
- Ki* 3CLpro (SARS-CoV-2 3CL protease): not an inhibitor of 3CL protease
- Ki (SARS-CoV-2 3CL protease; read-out: Ki* 3CLpro): > 10 µM
- EC50 [5]: 8 µM
- EC50 ([2]; C2C12 murine cardiomyoblasts): 500 nM and 250 nM

SMILES: O=C(N[C@@H](Cc1ccccc1)C(=O)N[C@H](/C=C/c1ncco1)Cc1ccccc1)OCc1ccccc1 [Compound 24, Benzyl ((S)-1-(((S,E)-4-(Oxazol-2-yl)-1-phenylbut-3-en-2-yl)-amino)-1-oxo-3-phenylpropan-2-yl)carbamate]
- Ki (cruzain; [8]): 10000 ± 1000 nM
- Ki (cruzain; [9]): 710 ± 10 nM
- EC50 [6]: > 20 µM
- T. cruzi axenic culture EC50 [6]: poorly effective
- EC50 ([5]; Trypanosoma brucei): 27 ± 5 µM
- CC50 (human dermal fibroblasts): > 100 µM

SMILES: O=C(N[C@@H](Cc1ccccc1)C(=O)N[C@H](/C=C/c1cc(C(F)(F)F)ccn1)CCc1ccccc1)OCc1ccccc1 [Compound 17, Benzyl ((S)-1-Oxo-3-phenyl-1-(((S,E)-5-phenyl-1-(4-(trifluoromethyl)pyridin-2-yl)pent-1-en-3-yl)amino)propan-2-yl)-carbamate]
- Ki (cruzain; [9]): 570 ± 50 nM
- T. cruzi axenic culture EC50 [6]: poorly effective
- inhibition at 20 µM ([5]; Trypanosoma brucei, at 20 μM, read-out: inhibition of cell growth): ≤ 50%
- Rate of Thiolation, k [7]: Negligible

SMILES: CN1CCN(C(=O)N[C@@H](Cc2ccccc2)C(=O)N[C@H](/C=C/c2ncccn2)CCc2ccccc2)CC1 [Compound 9, 4-Methyl-N—((S)-1-oxo-3-phenyl-1-(((S,E)-5-phenyl-1-(pyrimidin-2-yl)pent-1-en-3-yl)amino)propan-2-yl)piperazine-1-carboxamide]
- EC50 ([3]; Trypanosoma brucei, read-out: EC50 T. b. brucei BSF, axenic culture): > 20 µM
- CC50 at 48 h [1]: > 10 µM
- Ki (cruzain; [9]): 2200 ± 100 nM
- EC50 [6]: 20 µM
- T. cruzi axenic culture EC50 [6]: poorly effective
- EC50 [2, 10]: 5000 to 8000 nM
